Assays:
C6 glial cells [1] = assay: Whole-cell patch-clamp recording of VacA-induced currents; type: cell-based, rat; settings: extracellular application, 100 μM, pH 7.4
Procedure: Using wide-tipped electrodes (to 2 MΩ), observation according to whole-cell recording (patch-clamp methods) was performed at room temperature (23-25° C.) as reported previously (Kubo M., Okada Y., “Volume-regulatory Cl^− channel currents in cultured human epithelial cells”, J. Physiol. 456, 351-371, 1992). Series resistance (<5 MΩ) was compensated (to 60% to 70%) to minimize voltage errors. Time course of current change was monitored by applying (every 15 s) alternating step pulses ([…]) from a holding potential of 0 to ±40 mV. To monitor voltage dependence of a whole-cell volume-sensitive current, step pulses (2-s duration) were applied from a prepotential of −60 mV (2-s duration) to test potentials of −60 to 100 mV in 20 mV increments after attaining steady-state activation of swelling-induced current. […] Instantaneous currents were recorded 2.5 ms after application of step pulses. […] Currents were recorded using an EPC-9 amplifier (HEKA, Lambrechet, Germany). […]
Cell swelling was induced by hypotonic (270 mosmol/kg H2O) solution in which mannitol was reduced to 40 mM. […] Permeability properties of VacA-induced channels were also assessed by using the following solutions: […]
Relative anion permeability was also assessed by replacing 115 mM extracellular Cl^− with aspartate. […]

C6 glial cells [2] = type: cell-based, rat
Procedure: Cell volume was assessed according to a Coulter principle using a flow cytometer (EPICS Elite ESP, Coulter Co., Miami, Fla.). Cell viability was also assessed under a flow cytometry by a propidium iodide exclusion test. The cell suspension of 10 ml was incubated at 37° C. fro 1 min after adding 2 μl of PBS containing 10 mg/ml propidium iodide. Mean cell volume was measured at a given time by introducing 350 μl of the cell suspension containing 2×10^4 cells into the flow cytometer. A baseline cell volume was obtained as mean of values measured before and after a 20-min incubation in control solution (pH 7.4). Thereafter, effects of acidosis (pH 6.2), lactacidosis (pH 6.2), or lactate (pH 7.4) were assessed with addition of (i) HCl, (ii) lactate, or (iii) lactate and Tris. After the cells were preincubated with control (pH 7.4), acidic (pH 6.2), or lactacidosis (pH 6.2 with lactate) solution (all isotonic), effects of a hypotonic challenge were also assessed by diluting the isotonic medium with a 30% volume of deionized distilled water.
Composition of control solution employed for cell volume measurements was as follows: 125 mM NaCl, 2.5 mM KCl, 2 mM CaCl2, 1.0 mM MgCl2, 10 mM glucose, 1.25 mM NaH2PO4, and 25 mM NaHCO3 (pH 7.4, in 95% air/5% CO2). […] Molar osmolality measured by a freezing-point depression osmometer (Vogel, Giessen, Germany) was, 300, 306, and 312 mosmol/kg-H2O. […]

Compound	effect on VacA-mediated current (C6 glial cells [1])	volume regulation after lactacidosis-induced transient swelling in VacA-treated cells (C6 glial cells [2]; 100 μM NPPB, VacA-treated cells)	lactacidosis-induced persistent cell swelling (C6 glial cells [2]; pretreatment with gramicidin 0.5 μM)
O=C(O)c1cc([N+](=O)[O-])ccc1NCCCc1ccccc1 [NPPB]	strongly inhibited	abolished	
gramicidin			not prevented

Reference: patent US20060088552A1, “Method for inhibiting cell death, cell death inhibitor, and remedy for disease caused by cell death containing the cell death inhibitor” (priority 2002, published 2006)
